The structures appear in SMILES notation.

Common to all, as to assay type: functional
The test system of test [1] is 3T3-L1. The test is described as follows: Increase in triglyceride levels in mouse 3T3L1 cells at 1 uM.
Test [2] deals with 3T3-L1. Kind of test: Increase in triglyceride levels in mouse 3T3L1 cells at 3 uM.
Test [3] deals with 3T3-L1. The test is described as follows: Increase in triglyceride levels in mouse 3T3L1 cells at 10 uM.
In test [4] the test system is 3T3-L1. The test is described as follows: Increase in triglyceride levels in mouse 3T3L1 cells at 30 uM.
Test [5] has as its system 3T3-L1. The test is described as follows: Increase in triglyceride levels in mouse 3T3L1 cells at 100 uM.
Test [6] deals with 3T3-L1. Kind of test: Increase in adiponectin release in mouse 3T3L1 cells at 3 uM on day 4 by ELISA.
In test [7] the test system is 3T3-L1. Kind of test: Increase in adiponectin release in mouse 3T3L1 cells at 10 uM on day 4 by ELISA. (In general: In an ELISA, binding on a coated surface is turned into a signal by an enzyme label.)
In test [8] the test system is 3T3-L1. Kind of test: Increase in adiponectin release in mouse 3T3L1 cells at 30 uM on day 4 by ELISA.
The test system of test [9] is 3T3-L1. Kind of test: Increase in adiponectin release in mouse 3T3L1 cells at 100 uM on day 4 by ELISA.
Test [10] has as its system 3T3-L1. The test is described as follows: Increase in adiponectin release in mouse 3T3L1 cells at 3 uM on day 6 by ELISA.
The test system of test [11] is 3T3-L1. The test is described as follows: Increase in adiponectin release in mouse 3T3L1 cells at 10 uM on day 6 by ELISA.
Test [12] has as its system 3T3-L1. The test is described as follows: Increase in adiponectin release in mouse 3T3L1 cells at 30 uM on day 6 by ELISA.
Test [13] relates to Mus musculus. The test is described as follows: Decrease in blood glucose levels in KKAy mouse at 200 mg/kg, po after 1 week.
In test [14] the test system is Mus musculus. Kind of test: Decrease in blood glucose levels in KKAy mouse at 100 mg/kg, po after 2 weeks.
In test [15] the test system is Mus musculus. Kind of test: Decrease in blood glucose levels in KKAy mouse at 200 mg/kg, po after 2 weeks.
Test [16] relates to Mus musculus. Kind of test: Effect on blood triglyceride levels in KKAy mouse at 100 mg/kg, po.
Test [17] relates to Mus musculus. The test is described as follows: Effect on blood triglyceride levels in KKAy mouse at 200 mg/kg, po.
Test [18] relates to Mus musculus. The test is described as follows: Effect on blood triglyceride levels in KKAy mouse at 100 mg/kg, po after 1 week.
Test [19] deals with Mus musculus. The test is described as follows: Effect on blood triglyceride levels in KKAy mouse at 200 mg/kg, po after 1 week.
Test [20] relates to Mus musculus. The test is described as follows: Effect on blood triglyceride levels in KKAy mouse at 100 mg/kg, po after 2 weeks.
The test system of test [21] is Mus musculus. Kind of test: Effect on blood triglyceride levels in KKAy mouse at 200 mg/kg, po after 2 weeks.
Test [22] deals with Mus musculus. Kind of test: Decrease in blood free fatty acid levels in KKAy mouse at 100 mg/kg, po.
Test [23] relates to Mus musculus. Kind of test: Decrease in blood free fatty acid levels in KKAy mouse at 200 mg/kg, po.
Test [24] has as its system Mus musculus. The test is described as follows: Decrease in blood free fatty acid levels in KKAy mouse at 100 mg/kg, po after 1 week.
Test [25] deals with Mus musculus. Kind of test: Decrease in blood free fatty acid levels in KKAy mouse at 200 mg/kg, po after 1 week.
For test [26], the system named is Mus musculus. The test is described as follows: Decrease in blood free fatty acid levels in KKAy mouse at 100 mg/kg, po after 2 weeks.
In test [27] the test system is Mus musculus. The test is described as follows: Decrease in blood free fatty acid levels in KKAy mouse at 200 mg/kg, po after 2 weeks.
Test [28] has as its system 3T3-L1. The test is described as follows: Increase in adiponectin release in mouse 3T3L1 cells at 100 uM on day 6 by ELISA.
Test [29] concerns 3T3-L1. The test is described as follows: Increase in adiponectin gene expression in mouse 3T3L1 cells at 30 uM after 2 days relative to beta-actin mRNA expression.
Test [30] concerns 3T3-L1. The test is described as follows: Increase in adiponectin gene expression in mouse 3T3L1 cells at 100 uM after 2 days relative to beta-actin mRNA expression.
Test [31] relates to 3T3-L1. Kind of test: Increase in PPARgamma2 gene expression in mouse 3T3L1 cells at 30 uM after 2 days relative to beta-actin mRNA expression.
Test [32] relates to 3T3-L1. Kind of test: Increase in PPARgamma2 gene expression in mouse 3T3L1 cells at 100 uM after 2 days relative to beta-actin mRNA expression.
In test [33] the test system is 3T3-L1. The test is described as follows: Decrease in IL6 gene expression in mouse 3T3L1 cells at 30 uM after 2 days relative to beta-actin mRNA expression.
Test [34] deals with 3T3-L1. The test is described as follows: Decrease in IL6 gene expression in mouse 3T3L1 cells at 100 uM after 2 days relative to beta-actin mRNA expression.
For test [35], the system named is 3T3-L1. Kind of test: Increase in GLUT4 gene expression in mouse 3T3L1 cells at 30 uM after 2 days relative to beta-actin mRNA expression.
The subject of test [36] is 3T3-L1. Kind of test: Increase in GLUT4 gene expression in mouse 3T3L1 cells at 100 uM after 2 days relative to beta-actin mRNA expression.
Test [37] has as its system 3T3-L1. The test is described as follows: Increase in 2-Deoxyglucose-uptake in mouse 3T3L1 cells at 1 uM by liquid scintillation counter.
Test [38] deals with 3T3-L1. The test is described as follows: Increase in 2-Deoxyglucose-uptake in mouse 3T3L1 cells at 3 uM by liquid scintillation counter.
The subject of test [39] is 3T3-L1. The test is described as follows: Increase in 2-Deoxyglucose-uptake in mouse 3T3L1 cells at 10 uM by liquid scintillation counter.
Test [40] concerns 3T3-L1. The test is described as follows: Increase in 2-Deoxyglucose-uptake in mouse 3T3L1 cells at 30 uM by liquid scintillation counter.
Test [41] relates to 3T3-L1. The test is described as follows: Increase in 2-Deoxyglucose-uptake in mouse 3T3L1 cells at 100 uM by liquid scintillation counter.
The test system of test [42] is Mus musculus. The test is described as follows: Decrease in blood glucose levels in KKAy mouse at 100 mg/kg, po.
The subject of test [43] is Mus musculus. The test is described as follows: Decrease in blood glucose levels in KKAy mouse at 200 mg/kg, po.
The subject of test [44] is Mus musculus. The test is described as follows: Decrease in blood glucose levels in KKAy mouse at 100 mg/kg, po after 1 week.
In test [45] the test system is 3T3-L1. The test is described as follows: Increase in adiponectin gene expression in mouse 3T3L1 cells at 3 uM after 2 days relative to beta-actin mRNA expression.
The subject of test [46] is 3T3-L1. Kind of test: Increase in PPARgamma2 gene expression in mouse 3T3L1 cells at 3 uM after 2 days relative to beta-actin mRNA expression.
In test [47] the test system is 3T3-L1. The test is described as follows: Decrease in IL6 gene expression in mouse 3T3L1 cells at 3 uM after 2 days relative to beta-actin mRNA expression.
Test [48] relates to 3T3-L1. The test is described as follows: Increase in GLUT4 gene expression in mouse 3T3L1 cells at 3 uM after 2 days relative to beta-actin mRNA expression.

As for `COc1ccc([C@H]2Cc3cccc(O[C@@H]4O[C@H](CO)[C@@H](O)[C@H](O)[C@H]4O)c3C(=O)O2)cc1O`, the Activity is recorded as 3.6% in test [1]; 8.7% in test [2]; -1.5% in test [3]; -3% in test [4]; 6.6% in test [5].

In the case of `O=C1OC(c2ccc(O)cc2)Cc2cccc(O[C@@H]3O[C@H](CO)[C@@H](O)[C@H](O)[C@H]3O)c21` (some centres not stated), the Activity in [1] is listed as 11.1%; in test [2] it was 11.2%; in [3], 1.2%; in test [4], 10.5%; in [5], 9.2%.

For the molecule `O=C(O)c1c(O)cccc1/C=C/c1ccc(O)cc1` [HYDRANGEAIC ACID], the Activity was found to be 2.2% in test [1]; 11.7% in test [2]; 11.1% in [3]; 27.3% in test [4]; 41.2% in test [5].

Take `O=C1OC(c2ccc(O)cc2)Cc2cccc(O)c21` (configuration not stated) [HYDRANGENOL]: the Activity in test [1] is 14.4%; in test [2] it was 19.2%; in test [3], 17.7%; in test [4] it was 29.9%; in test [5] it was 41.3%; in test [6], 22.3 ng/mL. Moreover, the Activity in test [7] amounted to 22.8 ng/mL; in test [8], 27.4 ng/mL; in test [9] it was 33 ng/mL; in test [10], 68.2 ng/mL; in [11] it was 84.2 ng/mL; in test [12] it was 94 ng/mL. Moreover, the Activity stood at 397.5 mg/dL in [13]; 422.7 mg/dL in test [14]; 411.2 mg/dL in [15]; 332.1 mg/dL in test [16]; 362.8 mg/dL in test [17]; 429.3 mg/dL in test [18]. Further, the Activity in [19] was 413.8 mg/dL; in test [20], 483.9 mg/dL; in [21], 428.8 mg/dL; in test [22], 0.96 mEq/L; in test [23], 1.01 mEq/L; in test [24], 0.91 mEq/L. Besides, the Activity in [25] stood at 0.81 mEq/L; in [26], 1.07 mEq/L; in test [27] it was 0.89 mEq/L; in test [28], 99.8 ng/mL; in test [37], 117%; in test [38] it was 160%. In addition, the Activity in [39] came out at 221%; in [40] it was 245%; in test [41], 302%; in test [42], 336.3 mg/dL; in [43] it was 336 mg/dL; in test [44] it was 389.1 mg/dL. Moreover, the Ratio in test [29] was determined as 1.98; in test [30], 2.46; in [31], 1.92; in [32], 2.65; in [33], 0.78; in [34] it was 0.51. Further, the Ratio is recorded as 1.12 in [35] and 1.38 in [36].

On to `COc1ccc([C@H]2Cc3cccc(O)c3C(=O)O2)cc1O` [PHYLLODULCIN], for which the Activity in test [1] is -0.7%; in [2], 12.8%; in test [3], 9.8%; in test [4], 23.8%; in [5], 20.3%.

Take `O=c1oc(-c2ccc(O)c(O)c2)cc2cccc(O)c12` [THUNBERGINOL A]: the Activity is given as 8% in test [1]; 17.5% in test [2]; 19.6% in test [3]; 15.7% in test [4]; -27.6% in test [5].

Turning to `O=c1oc(-c2ccc(O)c(O)c2)cc2cc(O)cc(O)c12` [THUNBERGINOL B], the Activity in test [1] is given as -3.8%; in test [2], -8%; in test [3] it was -7.8%; in [4], 7.2%; in test [5], 54.1%.

As for `O=C1OC(c2ccc(O)cc2)Cc2cc(O)cc(O)c21` (configuration not stated) [THUNBERGINOL C], the Activity in test [1] was -9.3%; in test [2], -7.5%; in test [3], -11.1%; in [4], -17.6%; in test [5], 1.4%.

As to `O=C1OC(c2ccc(O)c(O)c2)Cc2cc(O)cc(O)c21` (configuration not stated) [THUNBERGINOL D], the Activity was -1.2% in test [1]; 2.8% in [2]; -0.8% in [3]; 4% in [4]; 12.5% in [5].

`COc1ccc([C@H]2Cc3cc(O)cc(O)c3C(=O)O2)cc1O` [THUNBERGINOL E]: the Activity in [1] is -6.3%; in test [2] it was -7.5%; in test [3] it was -8%; in test [4], 3.4%; in test [5] it was -4%.

As to `O=C1O/C(=C\c2ccc(O)c(O)c2)c2cccc(O)c21` [THUNBERGINOL F], the Activity is 2.1% in test [1]; 6.2% in test [2]; 6.2% in [3]; 8.3% in [4]; -54.8% in test [5].

As for `Cc1c(C)c2c(c(C)c1O)CCC(C)(COc1ccc(CC3SC(=O)NC3=O)cc1)O2` (configuration not stated) [TROGLITAZONE], the Activity in test [1] stood at 33.8%; in test [2], 40.5%; in [3], 39.6%; in [8], 43 ng/mL; in test [12], 101.2 ng/mL; in test [16], 329.4 mg/dL. The Activity in [18] was found to be 303.4 mg/dL; in test [20], 464.6 mg/dL; in [22], 0.95 mEq/L; in [24], 0.62 mEq/L; in test [26] it was 0.8 mEq/L; in [38], 388%. Further, the Activity in [42] came to 307.5 mg/dL; in test [44] it was 293.3 mg/dL. Also, the Ratio in [45] is reported as 3.01; in [46], 1.09; in [47], 0.89; in [48], 2.92.

The values above are taken from ChEMBL document CHEMBL1140691, “New type of anti-diabetic compounds from the processed leaves of Hydrangea macrophylla var. thunbergii (Hydrangeae Dulcis Folium)” (2007).
